Measurements published in US9815796B2 (Merck Sharp & Dohme Corp., priority 2013, dated 2017).

The compounds below were run against Rhesus PDE2A3 (Macaca mulatta, UniProt B3VTJ2) (assay: PDE2 fluorescence polarization (IMAP FP) inhibition assay, rhesus enzyme). Settings: Rhesus PDE2, Lab A, at 1 uM.
Assay type: biochemical, rhesus macaque
Description: The activity of the compounds in accordance with the present invention as PDE2 inhibitors may be readily determined using a fluorescence polarization (FP) methodology (Huang, W., et al., J. Biomol Screen, 2002, 7: 215).
In a typical experiment the PDE2 inhibitory activity of the compounds of the present invention was determined in accordance with the following experimental method. Rhesus PDE2A3 was amplified from rhesus macaque brain cDNA (Biochain Institute, Hayward, Calif.) using primers based on human PDE2A sequence (accession NM_002599.3) where the forward primer containing a Kozak consensus was 5′-[…]-3′ and the reverse primer was 5′-[…]-3′. Amplification with Easy-A High-Fidelity PCR cloning enzyme (Stratagene, La Jolla, Calif.) was 95° C. for 2 minutes followed by thirty three cycles of 95° C. for 40 seconds, 52° C. for 30 seconds, and 72° C. for 2 minutes 48 seconds. Final extension was 72° C. for 7 minutes. The PCR product was TA cloned into pcDNA3.3-TOPO (Invitrogen, Carlsbad, Calif.) according to standard protocol. A consensus sequence was developed from multiple clones and then deposited into GenBank (EU812167). AD293 cells (Stratagene, La Jolla, Calif.) with 70-80% confluency were transiently transfected with rhesus PDE2A3/pcDNA3.3-TOPO using Lipofectamine 2000 according to manufacturer specifications (Invitrogen, Carlsbad, Calif.). Cells were harvested 48 hours post-transfection and lysed by sonication (setting 3, 10×5 sec pulses) in a buffer containing 20 mM HEPES pH 7.4, 1 mM EDTA and Complete Protease Inhibitor Cocktail Tablets (Roche, Indianapolis, Ind.). Lysate was collected by centrifugation at 75,000×g for 20 minutes at 4° C. and supernatant utilized for evaluation of PDE2 activity. The fluorescence polarization assay for cyclic nucleotide phosphodiesterases was performed using an IMAP® FP kit supplied by Molecular Devices, Sunnyvale, Calif. (product # R8139). […] Assays were performed at room temperature in 384-well microtiter plates with an incubation volume of 20.2 μL. Solutions of test compounds were prepared in DMSO and serially diluted with DMSO to yield 8 μL of each of 10 solutions differing by 3-fold in concentration, at 32 serial dilutions per plate. […] 0% of inhibition is determined by using DMSO (1% final concentrations).
A Labcyte Echo 555 (Labcyte, Sunnyvale, Calif.) is used to dispense 200 nL from each well of the titration plate to the 384 well assay plate. Ten microliters of a solution of enzyme (1/2000 final dilution from aliquots; sufficient to produce 20% substrate conversion) was added to the assay plate. Next 10 uL of a separate solution of the substrate FAM-labeled cAMP (50 nM final concentration product # R7506 from Molecular Devices) and the activator cGMP (1 uM final concentration), prepared in the assay buffer (10 mM Tris HCl, pH 7.2, 10 mM MgCl2, 0.05% NaN3 0.01% Tween-20, and 1 mM DTT) was added to the assay plate and shaken to mix. The reaction is allowed to proceed at room temperature for 60 minutes. A binding solution is then made from the kit components, comprised of 80% Solution A, 20% Solution B and binding reagent at a volume of 1/600 the total binding solution. The enzymatic reaction is stopped by addition of 60 μL of the binding solution to each well of the assay plates and the plates are sealed and shaken for 30 seconds. The plate was incubated at room temperature for at least one hour prior to determining the fluorescence polarization (FP). The parallel and perpendicular fluorescence of each well of the plate was measured using a Tecan Genios Pro plate reader (Tecan, Switzerland) or Perkin Elmer EnVision™ plate reader (Waltham, Mass.). Fluorescence polarization (mP) was calculated from the parallel (S) and perpendicular (P) fluorescence of each sample well and the analogous values for the median control well, containing only substrate (So and Po), using the following equation: Polarization (mP)=1000*(S/So−P/Po)/(S/So+P/Po).

Chain of Rhesus PDE2A3 (B3VTJ2 1-941): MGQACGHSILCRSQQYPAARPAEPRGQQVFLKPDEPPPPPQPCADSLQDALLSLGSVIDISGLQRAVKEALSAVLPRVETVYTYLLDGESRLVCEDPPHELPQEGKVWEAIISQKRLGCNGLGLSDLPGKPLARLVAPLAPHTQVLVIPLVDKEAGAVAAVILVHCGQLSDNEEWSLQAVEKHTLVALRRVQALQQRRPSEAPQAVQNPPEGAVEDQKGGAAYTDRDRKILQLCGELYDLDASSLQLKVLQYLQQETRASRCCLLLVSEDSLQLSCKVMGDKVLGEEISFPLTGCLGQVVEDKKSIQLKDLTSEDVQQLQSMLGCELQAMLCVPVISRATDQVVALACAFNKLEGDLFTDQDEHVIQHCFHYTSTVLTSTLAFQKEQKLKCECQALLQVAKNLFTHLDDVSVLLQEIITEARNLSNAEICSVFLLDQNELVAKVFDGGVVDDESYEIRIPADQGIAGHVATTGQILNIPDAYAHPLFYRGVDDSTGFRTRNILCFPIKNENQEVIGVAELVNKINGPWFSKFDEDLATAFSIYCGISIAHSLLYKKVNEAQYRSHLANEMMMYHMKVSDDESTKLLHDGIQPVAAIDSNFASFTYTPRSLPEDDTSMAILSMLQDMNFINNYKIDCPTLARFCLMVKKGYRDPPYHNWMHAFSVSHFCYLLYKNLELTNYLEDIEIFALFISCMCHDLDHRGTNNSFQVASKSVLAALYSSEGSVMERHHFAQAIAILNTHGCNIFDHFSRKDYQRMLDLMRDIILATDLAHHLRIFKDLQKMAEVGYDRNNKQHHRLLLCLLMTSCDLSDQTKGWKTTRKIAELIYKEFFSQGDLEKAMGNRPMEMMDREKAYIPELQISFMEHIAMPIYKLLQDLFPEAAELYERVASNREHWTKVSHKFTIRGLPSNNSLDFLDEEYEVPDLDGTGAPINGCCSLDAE

Compound	Rhesus PDE2 % inh. at 1 uM - Lab A
O=C(NC(c1ccccc1)c1ccc(C(F)(F)F)cc1)c1cc(=O)[nH]c(-c2ccccc2)n1 (stereo not drawn) [Example 162, 6-oxo-2-phenyl-N-{phenyl[4-(trifluoromethyl)phenyl]methyl}-1,6-dihydropyrimidine-4-carboxamide]	45 % inh.

Same assay, conditions: Rhesus PDE2, Lab A; read-out: Rhesus PDE2 Ki (nM) - Lab A

Compound	Ki
O=C(NC(c1ccccc1)c1ccc(C(F)(F)F)cc1)c1cc(=O)[nH]c(-c2ccccc2)n1 (stereo not drawn) [Example 162, 6-oxo-2-phenyl-N-{phenyl[4-(trifluoromethyl)phenyl]methyl}-1,6-dihydropyrimidine-4-carboxamide]	> 1000 nM
COCc1nc(C(=O)NC(CO)c2ccc(C(F)(F)F)cc2)cc(=O)[nH]1 (stereo not drawn) [Example 112, N-{2-hydroxy-1-[4-(trifluoromethyl)phenyl]ethyl}-2-(methoxymethyl)-6-oxo-1,6-dihydropyrimidine-4-carboxamide]	1110 nM
Cc1nc(C(=O)NC(CO)c2ccc(C(F)(F)F)cc2)cc(=O)[nH]1 (single isomer, unassigned) [Example 311, (S)- or (R)-N-{2-hydroxy-1-[4-(trifluoromethyl)phenyl]ethyl}-2-methyl-6-oxo-1,6-dihydropyrimidine-4-carboxamide]	9120 nM
Cc1nc(C(=O)N[C@@H](c2ccc(C(F)(F)F)cc2)[C@H](C)O)cc(=O)[nH]1 [Example 64, N-((1S,2S)-2-hydroxy-1-(4-(trifluoromethyl)phenyl)propyl)-2-methyl-6-oxo-1,6-dihydropyrimidine-4-carboxamide]	~39300 nM
CC(NC(=O)c1cc(=O)[nH]c(-c2ncccn2)n1)c1ccc(C(F)(F)F)cc1Cl (stereo not drawn) [Example 96, N-{1-[2-chloro-4-(trifluoromethyl)phenyl]ethyl}-6-oxo-1,6-dihydro-2,2′-bipyrimidine-4-carboxamide]	1280 nM
O=C(NCc1c(Cl)cc(C(F)(F)F)cc1Cl)c1cc(=O)[nH]c(C2CC2)n1 [Example 239, 2-cyclopropyl-N-[2,6-dichloro-4-(trifluoromethyl)benzyl]-6-oxo-1,6-dihydropyrimidine-4-carboxamide]	3070 nM
C[C@@H](NC(=O)c1cc(=O)[nH]c(-c2ccccc2)n1)c1cccc(C(F)(F)F)c1 [Example 168, 6-oxo-2-phenyl-N-{(1R)-1-[3-(trifluoromethyl)phenyl]ethyl}-1,6-dihydropyrimidine-4-carboxamide]	467 nM
COc1cc(CN(C)C(=O)c2cc(=O)[nH]c(C)n2)cc(OC)c1OC [Example 14, N,2-dimethyl-6-oxo-N-(3,4,5-trimethoxybenzyl)-1,6-dihydropyrimidine-4-carboxamide]	1860 nM
Cc1nc(C(=O)NCc2ccc(C(F)(F)F)cc2C)cc(=O)[nH]1 [Example 23, 2-methyl-N-[2-methyl-4-(trifluoromethyl)benzyl]-6-oxo-1,6-dihydropyrimidine-4-carboxamide]	3920 nM
COc1ccc2cc(C(C)NC(=O)c3cc(=O)[nH]c(C)n3)ccc2c1 (single isomer, unassigned) [Example 314, (S)- or (R)-N-[1-(6-methoxynaphthalen-2-yl)ethyl]-2-methyl-6-oxo-1,6-dihydropyrimidine-4-carboxamide]	4740 nM
Cc1cc(C(F)(F)F)ccc1CNC(=O)c1cc(=O)[nH]c(C2CC2)n1 [Example 228, 2-cyclopropyl-N-[2-methyl-4-(trifluoromethyl)benzyl]-6-oxo-1,6-dihydropyrimidine-4-carboxamide]	1430 nM
Cc1nc(C(=O)NC(c2ccccc2)c2ccc(C(F)(F)F)cc2)cc(=O)[nH]1 (stereo not drawn) [Example 34, 2-methyl-6-oxo-N-{phenyl[4-(trifluoromethyl)phenyl]methyl}-1,6-dihydropyrimidine-4-carboxamide]	1420 nM
CC(NC(=O)c1cc(=O)[nH]c(-c2ccccc2)n1)c1ccc(C(F)(F)F)nc1 (stereo not drawn) [Example 356, 6-oxo-2-phenyl-N-{1-[6-(trifluoromethyl)pyridin-3-yl]ethyl}-1,6-dihydropyrimidine-4-carboxamide]	345 nM
COC(=O)c1ccc(C(C)(C)NC(=O)c2cc(=O)[nH]c(C3CC3)n2)cc1 [Example 215, methyl 4-(1-{[(2-cyclopropyl-6-oxo-1,6-dihydropyrimidin-4-yl)carbonyl]amino}-1-methylethyl)benzoate]	967 nM
COc1cc(-c2ccc([C@@H](C)NC(=O)c3cc(=O)[nH]c(C)n3)cc2)ccn1 [Example 317, (R)—N-(1-(4-(2-methoxypyridin-4-yl)phenyl)ethyl)-2-methyl-6-oxo-1,6-dihydropyrimidine-4-carboxamide]	1810 nM
Cc1nc(C(=O)N[C@H](C)c2ccc(S(=O)(=O)C(F)(F)F)cc2)cc(=O)[nH]1 [Example 331, 2-Methyl-6-oxo-N-[(1R)-1-{4-[(trifluoromethyl)sulfonyl]phenyl}ethyl]-1,6-dihydropyrimidine-4-carboxamide]	304 nM
C[C@@H](NC(=O)c1cc(=O)[nH]c(-c2ncccn2)n1)c1ccc(C(F)(F)F)c2ccccc12 [Example 102, 6-oxo-N-{(1R)-1-[4-(trifluoromethyl)naphthalen-1-yl]ethyl}-1,6-dihydro-2,2′-bipyrimidine-4-carboxamide]	5120 nM
O=C(NC(c1ccccc1)c1ccc(C(F)(F)F)cc1)c1cc(=O)[nH]c(C2CC2)n1 (stereo not drawn) [Example 196, 2-cyclopropyl-6-oxo-N-{phenyl[4-(trifluoromethyl)phenyl]methyl}-1,6-dihydropyrimidine-4-carboxamide]	915 nM
O=C(N[C@@H](c1ccc(C(F)(F)F)cc1)C1CC1)c1cc(=O)[nH]c(-c2ncccn2)n1 [Example 94, N-{(R)-cyclopropyl[4-(trifluoromethyl)phenyl]methyl}-6-oxo-1,6-dihydro-2,2′-bipyrimidine-4-carboxamide]	20 nM
Cc1nc(C(=O)NCc2ccc(C(F)(F)F)cc2Cl)cc(=O)[nH]1 [Example 24, N-[2-chloro-4-(trifluoromethyl)benzyl]-2-methyl-6-oxo-1,6-dihydropyrimidine-4-carboxamide]	3630 nM
CC(C)(NC(=O)c1cc(=O)[nH]c(-c2ccccc2)n1)c1ccc(F)c(F)c1 [Example 344, N-[1-(3,4-difluorophenyl)-1-methylethyl]-6-oxo-2-phenyl-1,6-dihydropyrimidine-4-carboxamide]	~449 nM

Same assay, conditions: Rhesus PDE2, Lab B; read-out: Rhesus PDE2 Ki (nM) - Lab B

Compound	Ki
O=C(NC(c1ccccc1)c1ccc(C(F)(F)F)cc1)c1cc(=O)[nH]c(-c2ccccc2)n1 (stereo not drawn) [Example 162, 6-oxo-2-phenyl-N-{phenyl[4-(trifluoromethyl)phenyl]methyl}-1,6-dihydropyrimidine-4-carboxamide]	1000 nM
O=C(c1cc(=O)[nH]c(-c2ccccc2)n1)N1Cc2cnc(-c3ccccc3)nc2C1 [Example 409, 2-phenyl-6-[(2-phenyl-5,7-dihydro-6H-pyrrolo[3,4-d]pyrimidin-6-yl)carbonyl]pyrimidin-4(3H)-one]	3930 nM
CC1(C(NC(=O)c2cc(=O)[nH]c(C3CC3)n2)c2ccc(SC(F)(F)F)c(F)c2)CC1 (single isomer, unassigned) [Example 705, (S)- or (R)-2-cyclopropyl-N-((3-fluoro-4-((trifluoromethyl)thio)phenyl)(1-methylcyclopropyl)methyl)-6-oxo-1,6-dihydropyrimidine-4-carboxamide]	1070 nM
C[C@@H](NC(=O)c1cc(=O)[nH]c(-c2nccs2)n1)c1ccc(C(F)(F)F)cc1 [Example 674, (R)-6-oxo-2-(thiazol-2-yl)-N-(1-(4-(trifluoromethyl)phenyl)ethyl)-1,6-dihydropyrimidine-4-carboxamide]	583 nM
CC(NC(=O)c1cc(=O)[nH]c(-c2ccccc2)n1)c1ccc(C(F)(F)F)nc1 (stereo not drawn) [Example 356, 6-oxo-2-phenyl-N-{1-[6-(trifluoromethyl)pyridin-3-yl]ethyl}-1,6-dihydropyrimidine-4-carboxamide]	490 nM
Cc1nc(C(=O)NC(C)(C)c2ccc(S(F)(F)(F)(F)F)cc2)cc(=O)[nH]1 [Example 677, 2-methyl-N-{1-methyl-1-[4-(pentafluoro-λ^6-sulfanyl)phenyl]ethyl}-6-oxo-1,6-dihydropyrimidine-4-carboxamide]	129 nM
Cc1nc(C(=O)N[C@H](C)c2cc(F)c(C(F)(F)F)cc2F)cc(=O)[nH]1 [Example 616]	112 nM
CC(C)(NC(=O)c1cc(=O)[nH]c(-c2ccccc2)n1)c1ccc(F)c(F)c1 [Example 344, N-[1-(3,4-difluorophenyl)-1-methylethyl]-6-oxo-2-phenyl-1,6-dihydropyrimidine-4-carboxamide]	681 nM
